# According to ChEMBL document CHEMBL1132149, “Potent bivalent thrombin inhibitors: replacement of the scissile peptide bond at P(1)-P(1)' with arginyl ketomethylene isosteres” (J Med Chem, 1999):
# Molecular target: Prothrombin (Homo sapiens, UniProt P00734)
# Assay: Inhibitory constant against thrombin
row,Ki,SMILES
1,1.5 pM,CC[C@@H](C)[C@H](NC(=O)[C@@H]1CCCN1C(=O)[C@H](CCC(=O)O)NC(=O)[C@H](Cc1ccc(O)cc1)NC(=O)[C@H](CC(=O)O)NC(=O)CNC(=O)CNC(=O)CNC(=O)CNC(=O)[C@H](C)NCC(=O)[C@H](CCCN=C(N)N)NC(=O)[C@@H]1CCCN1C(=O)[C@H](N)CC1CCCCC1)C(=O)N1CCC[C@H]1C(=O)N[C@@H](CCC(=O)O)C(=O)N[C@@H](CCC(=O)O)C(=O)N[C@@H](Cc1ccc(O)cc1)C(=O)N[C@@H](CC1CCCCC1)C(=O)N[C@@H](CC(=O)O)C(=O)O
2,0.35 pM,CC[C@@H](C)[C@H](NC(=O)[C@@H]1CCCN1C(=O)[C@H](CCC(=O)O)NC(=O)[C@H](Cc1ccc(O)cc1)NC(=O)[C@H](CC(=O)O)NC(=O)CNC(=O)CNC(=O)CNC(=O)CNC(=O)CSCC(=O)[C@H](CCCN=C(N)N)NC(=O)[C@@H]1CCCN1C(=O)[C@H](N)CC1CCCCC1)C(=O)N1CCC[C@H]1C(=O)N[C@@H](CCC(=O)O)C(=O)N[C@@H](CCC(=O)O)C(=O)N[C@@H](C)C(=O)N[C@@H](CC1CCCCC1)C(=O)N[C@H](CCC(N)=O)C(=O)O
3,9.4 pM,CC[C@@H](C)[C@H](NC(=O)[C@H](CCC(=O)O)NC(=O)[C@H](CCC(=O)O)NC(=O)[C@H](Cc1ccccc1)NC(=O)[C@H](CC(=O)O)NC(=O)CNC(=O)CNC(=O)CNC(=O)CNC(=O)CSCC(=O)[C@H](CCCN=C(N)N)NC(=O)[C@@H]1CCCN1C(=O)[C@H](N)Cc1ccccc1)C(=O)N1CCC[C@H]1C(=O)N[C@@H](CCC(=O)O)C(=O)N[C@@H](CCC(=O)O)C(=O)N[C@@H](Cc1ccc(O)cc1)C(=O)N[C@@H](CC(C)C)C(=O)N[C@@H](CCC(N)=O)C(=O)O
4,1.7 pM,CC[C@@H](C)[C@H](NC(=O)[C@@H]1CCCN1C(=O)[C@H](CCC(=O)O)NC(=O)[C@H](Cc1ccc(O)cc1)NC(=O)[C@H](CC(=O)O)NC(=O)CNC(=O)CNC(=O)CNC(=O)CNC(=O)CN(CC(=O)[C@H](CCCN=C(N)N)NC(=O)[C@@H]1CCCN1C(=O)[C@H](N)CC1CCCCC1)C(C)=O)C(=O)N1CCC[C@H]1C(=O)N[C@@H](CCC(=O)O)C(=O)N[C@@H](CCC(=O)O)C(=O)N[C@@H](Cc1ccc(O)cc1)C(=O)N[C@@H](CC1CCCCC1)C(=O)N[C@@H](CC(=O)O)C(=O)O
5,2 pM,CC[C@@H](C)[C@H](NC(=O)[C@@H]1CCCN1C(=O)[C@H](CCC(=O)O)NC(=O)[C@H](Cc1ccc(O)cc1)NC(=O)[C@H](CC(=O)O)NC(=O)CNC(=O)CNC(=O)CNC(=O)CNC(=O)CN(C)CC(=O)[C@H](CCCNC(=N)N)NC(=O)[C@@H]1CCCN1C(=O)[C@H](N)CC1CCCCC1)C(=O)N1CCC[C@H]1C(=O)N[C@@H](CCC(=O)O)C(=O)N[C@@H](CCC(=O)O)C(=O)N[C@@H](Cc1ccc(O)cc1)C(=O)N[C@@H](CC1CCCCC1)C(=O)N[C@@H](CC(=O)O)C(=O)O
6,7300 pM,CC[C@@H](C)[C@H](NC(=O)[C@H](CCC(=O)O)NC(=O)[C@H](CCC(=O)O)NC(=O)[C@H](Cc1ccccc1)NC(=O)[C@H](CC(=O)O)NC(=O)CNC(=O)CCCCCNC(=O)CNCC(=O)NCC(=O)[C@H](CCCNC(=N)N)NC(=O)[C@@H]1CCCN1C(=O)[C@H](N)Cc1ccccc1)C(=O)N1CCC[C@H]1C(=O)N[C@@H](CCC(=O)O)C(=O)N[C@@H](CCC(=O)O)C(=O)N[C@@H](Cc1ccc(O)cc1)C(=O)N[C@@H](CC(C)C)C(=O)N[C@@H](CCC(N)=O)C(=O)O
7,1060 pM,CC[C@@H](C)[C@H](NC(=O)[C@H](CCC(=O)O)NC(=O)[C@H](CCC(=O)O)NC(=O)[C@H](Cc1ccccc1)NC(=O)[C@H](CC(=O)O)NC(=O)CNC(=O)CNC(=O)CNC(=O)CNC(=O)CSCC(=O)[C@H](CCCNC(=N)N)NC(=O)[C@@H]1CCCN1C(=O)[C@@H](Cc1ccccc1)NC(C)=O)C(=O)N1CCC[C@H]1C(=O)N[C@@H](CCC(=O)O)C(=O)N[C@@H](CCC(=O)O)C(=O)N[C@@H](Cc1ccc(O)cc1)C(=O)N[C@@H](CC(C)C)C(=O)N[C@@H](CCC(N)=O)C(=O)O
8,35 pM,CC[C@@H](C)[C@H](NC(=O)[C@@H]1CCCN1C(=O)[C@H](CCC(=O)O)NC(=O)[C@H](Cc1ccc(O)cc1)NC(=O)[C@H](CC(=O)O)NC(=O)CNC(=O)CNC(=O)CNC(=O)CNC(=O)CN(C)CC(=O)[C@H](CCCNC(=N)N)NC(=O)[C@@H]1CCCN1C(=O)[C@H](N)Cc1ccccc1)C(=O)N1CCC[C@H]1C(=O)N[C@@H](CCC(=O)O)C(=O)N[C@@H](CCC(=O)O)C(=O)N[C@@H](Cc1ccc(O)cc1)C(=O)N[C@@H](CC1CCCCC1)C(=O)N[C@@H](CC(=O)O)C(=O)O
9,5.7 pM,CC[C@@H](C)[C@H](NC(=O)[C@@H]1CCCN1C(=O)[C@H](CCC(=O)O)NC(=O)[C@H](Cc1ccc(O)cc1)NC(=O)[C@H](CC(=O)O)NC(=O)CNC(=O)[C@H](CC(N)=O)NC(=O)CNC(=O)CNC(=O)CNC(=O)CN[C@@H]1CCCN1CC(=O)[C@H](CCCN=C(N)N)NC(=O)[C@@H]1CCCN1C(=O)[C@H](N)CC1CCCCC1)C(=O)N1CCC[C@H]1C(=O)N[C@@H](CCC(=O)O)C(=O)N[C@@H](CCC(=O)O)C(=O)N[C@@H](C)C(=O)N[C@@H](CC1CCCCC1)C(=O)N[C@H](CCC(=O)O)C(=O)O
10,0.87 pM,CC[C@@H](C)[C@H](NC(=O)[C@@H]1CCCN1C(=O)[C@H](CCC(=O)O)NC(=O)[C@H](Cc1ccc(O)cc1)NC(=O)[C@H](CC(=O)O)NC(=O)CNC(=O)[C@H](CC(N)=O)NC(=O)CNC(=O)CNC(=O)CNC(=O)CNC(=O)CN(C)CC(=O)[C@H](CCCNC(=N)N)NC(=O)[C@@H]1CCCN1C(=O)[C@H](N)CC1CCCCC1)C(=O)N1CCC[C@H]1C(=O)N[C@@H](CCC(=O)O)C(=O)N[C@@H](CCC(=O)O)C(=O)N[C@@H](C)C(=O)N[C@@H](CC1CCCCC1)C(=O)N[C@H](CCC(=O)O)C(=O)O
11,83 pM,CC[C@@H](C)[C@H](NC(=O)[C@H](CCC(=O)O)NC(=O)[C@H](CCC(=O)O)NC(=O)[C@H](Cc1ccccc1)NC(=O)[C@H](CC(=O)O)NC(=O)CNC(=O)CNC(=O)CNC(=O)CNC(=O)CN(C)CC(=O)[C@H](CCCNC(=N)N)NC(=O)[C@@H]1CCCN1C(=O)[C@H](N)Cc1ccccc1)C(=O)N1CCC[C@H]1C(=O)N[C@@H](CCC(=O)O)C(=O)N[C@@H](CCC(=O)O)C(=O)N[C@@H](Cc1ccc(O)cc1)C(=O)N[C@@H](CC(C)C)C(=O)N[C@@H](CCC(N)=O)C(=O)O
